Measured values taken from patent US20120225862A1, “HETEROARYL BENZAMIDES, COMPOSITIONS AND METHODS OF USE” (AUCKLAND UNIVSERVICES LIMITED, priority 2009, published 2012).

Assays:
Flt3 = biological target: T1, Flt3 (Homo sapiens, UniProt P36888); assay: In vitro kinase activity (Millipore KinaseProfiler): Flt3; assay type: biochemical; conditions: no head or unit printed
T1 construct: purchased Millipore (KinaseProfiler service)
Procedure: (§1) All cells were grown in DMEM+10% FCS. ACHN and ACHN shVHL were a kind gift from George V. Thomas (UCLA). HIF overexpressing clones were described previously. Transfection of RNA oligos were performed with DnarmaFECT Reagent 1 (Dharmcon), according to manufacturer's directions. ON-TARGETplus SMART pools against HIF-1β/ARNT were purchased from Dharmacon. Glut1 was detected with anti-GLUT1 antibody from NeoMarkers/LabVision/Fisher. Pyruvate/lactate levels and hexokinase activity were both measured by fluorometric assay (BioVision and Sigma-Aldrich, respectively). ATP levels were measured by bioluminescence assay (ATP Determination Kit from Molecular Probes/Invitrogen). In vitro kinase activities were performed by Millipore KinaseProfiler. Affi-Gel 10 (BioRad) activated affinity media was coupled to analogs to generate immobilized affinity linkers.
(§2) We next wanted to investigate the differential glucose uptake between RCCs with and without VHL treated with compound 47 that subsequently lead to the selective death of VHL-deficient cells. We first examined the message levels of the two main glucose transporters, GLUT1 and GLUT2 by quantitative real-time PCR. GLUT1 is an inducible, high-affinity glucose transporter, while GLUT2 is the glucose transporter responsible for basal glucose uptake. […] Cells deficient in VHL had very low levels of GLUT2 that could barely be detected (FIG. 3J). […]

Axl = biological target: T2, Axl (Homo sapiens, UniProt P30530); assay: In vitro kinase activity (Millipore KinaseProfiler): Axl; assay type: biochemical; conditions: no head or unit printed
T2 construct: purchased Millipore (KinaseProfiler service)
Procedure: as §1, §2

RCC4 [1] = assay: Clonogenic survival, RCC4; assay type: cell-based, human
Procedure: Three hundred cells were plated into 60-mm tissue culture dishes in DMEM. The next day, cells were treated with vehicle or drug and were further incubated for an additional 10 days. […] The stain was removed and plates were washed in deionized water. Colonies were quantified. All conditions were measured in triplicate and all experiments were performed in triplicate.
For 2,3-bis[2-methoxy-4-nitro-5-sulfophenyl]-2H-tetrazolium-5-carboxanilide (XTT) assays, five thousand cells were plated in 96-well plates. The next day, vehicle (DMSO) or drug was added by serial dilution. […] Metabolism of XTT was quantified by measuring the absorbance at 450 nm. IC50s were calculated using linear interpolation. For clonogenic survival assays, three hundred cells were plated per 60 mm tissue culture dish. The cells were allowed to attach overnight and then treated with vehicle or drug for […]. […] All conditions were measured in triplicate and each experiment was done in duplicate or triplicate. To determine necrosis, cells were treated with drug for a given time point. Media and cells were collected, centrifugated, and resuspended in 0.4% trypan blue (Invitrogen). Live and dead cells were counted on a hematocytometer.

Rsk1 = biological target: T3, Rsk1 (Homo sapiens, UniProt Q15418); assay: In vitro kinase activity (Millipore KinaseProfiler): Rsk1; assay type: biochemical; conditions: no head or unit printed
T3 construct: purchased Millipore (KinaseProfiler service)
Procedure: as §1, §2

CDK1/cyclinB = biological target: T4, CDK1/cyclinB (Homo sapiens, UniProt P06493); assay: In vitro kinase activity (Millipore KinaseProfiler): CDK1/cyclinB; assay type: biochemical; conditions: no head or unit printed
T4 construct: purchased Millipore (KinaseProfiler service)
Procedure: as §1, §2

RCC4 [2] = assay: ATP levels (bioluminescence), VHL-deficient cells; assay type: cell-based, human
Procedure: as §1
We next investigated how a decrease in glycolysis could lead to selective necrotic cell death. One possibility is that the reduction in glycolysis lowers the availability of pyruvate, the essential precursor for the generation of acetyl-CoA. […] We therefore examined oxygen consumption as a marker of oxidative phosphorylation and ATP production in treated and untreated cells. […] However, the decrease in glucose uptake in response to treatment with compound 47 in VHL-deficient cells results in a 75% decrease in ATP levels (FIG. 3G). […]

CHK1 = biological target: T5, CHK1 (Homo sapiens, UniProt O14757); assay: In vitro kinase activity (Millipore KinaseProfiler): CHK1; assay type: biochemical; conditions: no head or unit printed
T5 construct: purchased Millipore (KinaseProfiler service)
Procedure: as §1, §2

CDK6/cyclinD3 = biological target: T6, CDK6/cyclinD3 (Homo sapiens, UniProt Q00534); assay: In vitro kinase activity (Millipore KinaseProfiler): CDK6/cyclinD3; assay type: biochemical; conditions: no head or unit printed
T6 construct: purchased Millipore (KinaseProfiler service)
Procedure: as §1, §2

T4 sequence (P06493 whole entry, species assumed): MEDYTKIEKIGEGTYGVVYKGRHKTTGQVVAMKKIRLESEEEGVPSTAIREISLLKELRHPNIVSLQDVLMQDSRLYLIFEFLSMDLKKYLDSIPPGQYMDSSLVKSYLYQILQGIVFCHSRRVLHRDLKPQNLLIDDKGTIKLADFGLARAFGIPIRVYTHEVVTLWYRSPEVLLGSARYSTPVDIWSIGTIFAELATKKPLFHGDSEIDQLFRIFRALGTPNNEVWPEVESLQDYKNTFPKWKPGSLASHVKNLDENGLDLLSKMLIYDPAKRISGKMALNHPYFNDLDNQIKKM
T4 sequence (P14635 whole entry partner, species assumed): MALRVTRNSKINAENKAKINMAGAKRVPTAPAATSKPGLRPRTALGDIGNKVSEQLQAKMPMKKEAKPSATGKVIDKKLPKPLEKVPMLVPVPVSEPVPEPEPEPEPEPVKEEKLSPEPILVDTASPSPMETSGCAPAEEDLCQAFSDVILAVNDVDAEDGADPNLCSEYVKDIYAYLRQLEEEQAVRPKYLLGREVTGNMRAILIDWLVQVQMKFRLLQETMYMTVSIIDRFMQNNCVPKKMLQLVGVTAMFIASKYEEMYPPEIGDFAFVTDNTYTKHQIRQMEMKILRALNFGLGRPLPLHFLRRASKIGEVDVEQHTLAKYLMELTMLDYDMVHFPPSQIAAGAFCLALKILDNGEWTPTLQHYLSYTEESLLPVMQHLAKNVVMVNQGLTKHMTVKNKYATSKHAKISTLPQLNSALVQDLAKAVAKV
T6 sequence (Q00534 whole entry, species assumed): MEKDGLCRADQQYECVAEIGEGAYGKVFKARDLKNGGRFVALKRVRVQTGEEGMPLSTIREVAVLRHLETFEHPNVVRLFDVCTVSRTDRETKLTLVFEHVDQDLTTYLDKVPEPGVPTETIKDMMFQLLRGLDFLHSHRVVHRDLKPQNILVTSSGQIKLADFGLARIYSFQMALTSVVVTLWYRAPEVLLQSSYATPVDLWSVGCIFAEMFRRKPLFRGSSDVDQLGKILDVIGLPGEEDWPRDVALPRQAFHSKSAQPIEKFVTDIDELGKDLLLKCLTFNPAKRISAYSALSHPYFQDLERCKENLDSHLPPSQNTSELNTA
T6 sequence (P30281 whole entry partner, species assumed): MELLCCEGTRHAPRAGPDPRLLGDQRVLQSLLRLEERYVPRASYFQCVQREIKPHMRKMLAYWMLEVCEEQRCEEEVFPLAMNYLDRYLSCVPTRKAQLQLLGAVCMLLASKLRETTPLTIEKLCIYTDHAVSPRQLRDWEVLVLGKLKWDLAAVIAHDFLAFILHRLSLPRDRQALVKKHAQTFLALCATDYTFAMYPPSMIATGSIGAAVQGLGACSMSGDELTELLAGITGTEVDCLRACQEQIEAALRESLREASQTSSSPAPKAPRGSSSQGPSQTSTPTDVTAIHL
T1 sequence (P36888 27-993, species assumed): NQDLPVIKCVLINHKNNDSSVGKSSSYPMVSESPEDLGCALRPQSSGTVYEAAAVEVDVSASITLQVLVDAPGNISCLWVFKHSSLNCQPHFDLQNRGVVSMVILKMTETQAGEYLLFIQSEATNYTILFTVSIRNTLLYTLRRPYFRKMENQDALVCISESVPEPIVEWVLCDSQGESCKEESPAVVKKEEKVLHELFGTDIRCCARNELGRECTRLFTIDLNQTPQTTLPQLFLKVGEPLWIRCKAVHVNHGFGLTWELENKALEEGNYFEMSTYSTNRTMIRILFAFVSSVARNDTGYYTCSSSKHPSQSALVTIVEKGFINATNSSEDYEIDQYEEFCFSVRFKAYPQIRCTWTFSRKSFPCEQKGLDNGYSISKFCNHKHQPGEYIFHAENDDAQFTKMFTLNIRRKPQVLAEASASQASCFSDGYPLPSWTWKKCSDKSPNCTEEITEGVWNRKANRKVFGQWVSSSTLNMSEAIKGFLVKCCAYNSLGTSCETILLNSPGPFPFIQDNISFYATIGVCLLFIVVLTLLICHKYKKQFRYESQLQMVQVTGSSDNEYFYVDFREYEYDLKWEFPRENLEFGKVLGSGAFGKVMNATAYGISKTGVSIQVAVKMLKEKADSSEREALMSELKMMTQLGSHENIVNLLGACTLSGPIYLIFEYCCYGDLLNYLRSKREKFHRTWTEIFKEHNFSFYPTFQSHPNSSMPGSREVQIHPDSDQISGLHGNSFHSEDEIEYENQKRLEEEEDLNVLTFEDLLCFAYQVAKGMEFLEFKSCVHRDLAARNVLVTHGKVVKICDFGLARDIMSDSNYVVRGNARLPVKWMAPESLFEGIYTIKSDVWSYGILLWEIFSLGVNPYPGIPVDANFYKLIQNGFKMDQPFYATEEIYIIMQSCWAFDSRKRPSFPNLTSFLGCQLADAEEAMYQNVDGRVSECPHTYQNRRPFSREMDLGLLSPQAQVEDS
T3 sequence (Q15418 whole entry, species assumed): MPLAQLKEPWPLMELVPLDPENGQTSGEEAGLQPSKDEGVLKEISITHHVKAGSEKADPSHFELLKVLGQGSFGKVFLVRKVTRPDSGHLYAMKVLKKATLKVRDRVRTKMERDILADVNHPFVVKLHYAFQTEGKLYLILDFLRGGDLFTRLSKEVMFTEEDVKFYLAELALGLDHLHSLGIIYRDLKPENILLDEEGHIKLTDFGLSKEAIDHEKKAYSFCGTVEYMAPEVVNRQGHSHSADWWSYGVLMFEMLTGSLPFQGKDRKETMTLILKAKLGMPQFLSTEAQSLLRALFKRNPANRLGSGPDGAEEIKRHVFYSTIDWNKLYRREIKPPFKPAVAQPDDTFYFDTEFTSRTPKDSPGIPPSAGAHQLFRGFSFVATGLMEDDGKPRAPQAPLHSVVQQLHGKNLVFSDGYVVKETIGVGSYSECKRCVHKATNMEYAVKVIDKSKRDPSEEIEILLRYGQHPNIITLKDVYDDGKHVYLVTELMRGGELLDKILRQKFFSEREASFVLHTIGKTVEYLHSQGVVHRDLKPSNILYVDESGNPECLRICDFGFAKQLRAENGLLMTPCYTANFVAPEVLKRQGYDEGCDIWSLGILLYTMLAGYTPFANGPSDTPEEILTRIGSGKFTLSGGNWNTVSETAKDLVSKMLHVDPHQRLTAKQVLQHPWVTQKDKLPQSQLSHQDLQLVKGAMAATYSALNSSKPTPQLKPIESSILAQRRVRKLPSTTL
T5 sequence (O14757 whole entry, species assumed): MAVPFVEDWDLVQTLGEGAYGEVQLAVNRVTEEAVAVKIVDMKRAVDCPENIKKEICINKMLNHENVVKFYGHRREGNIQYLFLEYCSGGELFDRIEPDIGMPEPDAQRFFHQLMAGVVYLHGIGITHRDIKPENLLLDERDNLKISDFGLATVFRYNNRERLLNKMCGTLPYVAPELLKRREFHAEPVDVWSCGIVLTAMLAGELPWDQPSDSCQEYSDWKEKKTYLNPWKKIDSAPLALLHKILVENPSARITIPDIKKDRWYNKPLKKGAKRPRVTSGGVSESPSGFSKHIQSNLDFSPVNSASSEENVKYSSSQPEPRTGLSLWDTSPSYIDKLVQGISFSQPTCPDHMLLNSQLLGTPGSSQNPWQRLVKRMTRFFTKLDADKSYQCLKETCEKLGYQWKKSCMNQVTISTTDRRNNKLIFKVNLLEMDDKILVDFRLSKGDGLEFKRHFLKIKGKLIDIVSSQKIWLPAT
T2 sequence (P30530 26-894, species assumed): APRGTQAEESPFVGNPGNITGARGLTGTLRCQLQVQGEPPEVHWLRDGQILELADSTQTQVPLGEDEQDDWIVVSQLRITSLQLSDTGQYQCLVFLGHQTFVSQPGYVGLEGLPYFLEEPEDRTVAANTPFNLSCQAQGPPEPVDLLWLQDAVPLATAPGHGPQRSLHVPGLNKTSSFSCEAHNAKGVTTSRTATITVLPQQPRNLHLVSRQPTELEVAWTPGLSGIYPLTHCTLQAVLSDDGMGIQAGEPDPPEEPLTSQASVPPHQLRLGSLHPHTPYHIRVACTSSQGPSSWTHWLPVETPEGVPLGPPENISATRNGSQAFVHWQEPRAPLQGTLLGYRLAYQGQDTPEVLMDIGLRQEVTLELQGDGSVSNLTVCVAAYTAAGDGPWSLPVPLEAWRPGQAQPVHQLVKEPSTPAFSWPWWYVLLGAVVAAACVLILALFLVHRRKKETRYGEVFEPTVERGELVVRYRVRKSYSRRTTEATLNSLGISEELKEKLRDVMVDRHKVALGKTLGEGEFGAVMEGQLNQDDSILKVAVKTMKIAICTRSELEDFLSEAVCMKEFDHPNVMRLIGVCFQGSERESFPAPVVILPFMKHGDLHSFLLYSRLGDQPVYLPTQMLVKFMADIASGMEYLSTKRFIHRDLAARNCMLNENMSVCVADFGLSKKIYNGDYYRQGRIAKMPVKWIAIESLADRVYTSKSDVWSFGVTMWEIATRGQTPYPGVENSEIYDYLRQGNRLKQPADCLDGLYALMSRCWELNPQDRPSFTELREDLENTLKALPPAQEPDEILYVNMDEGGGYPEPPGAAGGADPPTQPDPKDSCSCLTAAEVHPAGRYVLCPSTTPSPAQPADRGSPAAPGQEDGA

**Q.** Which Flt3 kinase activity (Flt3) does the source give for CC(C)(C)c1ccc(S(=O)(=O)NCc2ccc(C(=O)Nc3cccnc3)cc2)cc1 [Example 38, 4-((4-tert-Butylphenylsulfonamido)methyl)-N-(pyridin-3-yl)benzamide] here?
**A.** Its Flt3 kinase activity is 111%.

**Q.** And the Axl kinase activity (Axl)?
**A.** Its Axl kinase activity is 87.

**Q.** And the “reversibility of induced cell death” value (RCC4 [1]; 5 μM, media replaced after indicated time, total 10 days)?
**A.** The value was “irreversible after three days”.

**Q.** What about the “clonogenic survival of RCC4” value (RCC4 [1]; RCC4 (VHL-deficient), 5 μM, 10 days) of the same compound?
**A.** Its value is “specifically toxic to RCC4 cells”.

**Q.** And the “RCC4 cells killed following treatment” value (RCC4 [1]; compound 5 μM, FIG. 2D)?
**A.** The value was “Approximately 80%”.

**Q.** What about the Rsk1 kinase activity (Rsk1) of the same compound?
**A.** Its Rsk1 kinase activity is 120%.

**Q.** And the CDK1/cyclinB kinase activity (CDK1/cyclinB)?
**A.** Its CDK1/cyclinB kinase activity is 96.

**Q.** What about the “decrease in ATP levels in VHL-deficient cells” value (RCC4 [2]; 5 μM, FIG. 3G) of the same compound?
**A.** Its value is 75%.

**Q.** What about the “concentration dependence of inhibition of ATP production” value (RCC4 [2]; FIG. 3H) of the same compound?
**A.** The value was “dose-dependent”.

**Q.** And the CHK1 kinase activity (CHK1)?
**A.** The CHK1 kinase activity was 114.

**Q.** And the CDK6/cyclinD3 kinase activity (CDK6/cyclinD3)?
**A.** Its CDK6/cyclinD3 kinase activity is 105.
